Test results from US20230127944A1, “BROAD-SPECTRUM CARBAPENEMS” (priority 2019, published 2023).
Values after ≈ are worked out from the molar mass of the structure shown.

Columns and labels:
Assay type in all cases: cell-based
S. aureus USA 300 = assay: broth microdilution MIC assay, S. aureus USA300; conditions: Staphylococcus aureus; S. aureus USA300 (MRSA); read-out: MIC, S. aureus USA300
How it was run: (§1)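 MIC is the lowest compound concentration with no visible growth after 16-20 h at 37° C. Testing followed CLSI microdilution, with 2-fold compound series in Mueller-Hinton broth supplemented with divalent cations and a starting inoculum of 5×10^5 CFU/mL.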

[1] = tested on: P. aeruginosa clinical isolates; assay: expanded MIC profiling, P. aeruginosa clinical isolates; conditions: Pseudomonas aeruginosa
Experimental: To evaluate the activity of selected example compounds against clinical isolates of target species, standard cell-based broth microdilution MIC assays were employed. A panel of 20 clinical isolates of P. aeruginosa and 20 clinical isolates of Methicillin Resistant S. aureus (MRSA) from Lankenau Medical Center (Wynnewood, Pa.) were used. In the set of P. aeruginosa isolates, the compounds were also tested in combination with a β-lactamase inhibitor (taniborbactam), to evaluate the potential benefit of inhibiting β-lactamase enzymes. The assay was conducted in Cation Adjusted Mueller Hinton Broth (CAMHB, BD #212322, BD Diagnostic Systems, Sparks, Md.). Bacteria strains were grown for 3-5 hours in CAMHB. Compounds were added to a microtiter plate in 2-fold serial dilutions in CAMHB. For plates receiving β-lactamase inhibitor, taniborbactam was added to obtain a final fixed concentration of 4 μg/mL. Once the test articles were added, the plates were inoculated according to CLSI broth microdilution method. After inoculation, the plates were incubated for 16-20 hours at 37° C. then the Minimal Inhibitory Concentration (MIC) of the test compound is determined visually. Values for concentration required to inhibit growth of […] (MIC50) and 90% (MIC90) of isolates were determined.

[2] = tested on: P. aeruginosa ΔmexAB-OprM (an efflux pump knockout); assay: broth microdilution MIC assay, P. aeruginosa ΔmexAB-OprM; conditions: Pseudomonas aeruginosa, read-out: MIC, P. aeruginosa ΔmexAB-OprM
How it was run: as §1

[3] = tested on: E. coli ATCC 25922 (wild-type/QC strain); assay: broth microdilution MIC assay, E. coli 25922; conditions: Escherichia coli, ATCC25922; read-out: MIC, E. coli 25922
How it was run: as §1

S. aureus USA 600 = assay: broth microdilution MIC assay, S. aureus USA600; conditions: Staphylococcus aureus; S. aureus USA600 (MRSA); read-out: MIC, S. aureus USA600
How it was run: as §1

[4] = tested on: P. aeruginosa 35151 (hyper-permeable strain); assay: broth microdilution MIC assay, P. aeruginosa 35151; conditions: Pseudomonas aeruginosa, read-out: MIC, P. aeruginosa 35151
How it was run: as §1

[5] = tested on: S. aureus ATCC 33591 (methicillin-resistant); assay: broth microdilution MIC assay, S. aureus 33591; conditions: Staphylococcus aureus, ATCC33591; S. aureus 33591, methicillin-resistant; read-out: MIC, S. aureus 33591
How it was run: as §1

P. aeruginosa Paeβ-17 = assay: broth microdilution MIC assay, P. aeruginosa Paeβ-17; conditions: Pseudomonas aeruginosa, read-out: MIC, P. aeruginosa Paeβ-17
How it was run: as §1

[6] = tested on: P. aeruginosa ATCC 27853 (wild-type/QC strain); assay: broth microdilution MIC assay, P. aeruginosa 27853; conditions: Pseudomonas aeruginosa, ATCC27853; read-out: MIC, P. aeruginosa 27853
How it was run: as §1

[7] = panel of 20 P. aeruginosa clinical isolates

Q: Which MIC (S. aureus USA 300) does the source give for `C[C@@H](O)[C@H]1C(=O)N2C(C(=O)O)=C(S[C@@H]3CCN(C[C@H]4CC[C@H](NC(=N)N)CC4)C3)[C@H](C)[C@H]12` [Example 28, (4R,5S,6S)-3-(((R)-1-(((1R,4R)-4-guanidinocyclohexyl)methyl)pyrrolidin-3-yl)thio)-6-((R)-1-hydroxyethyl)-4-methyl-7-oxo-1-azabicyclo[3.2.0]hept-2-ene-2-carboxylic acid] here?
A: 1 to 4 µg/mL (≈ 2.15 to 8.59 µM)

Q: And the MIC ([1]; P. aeruginosa clinical isolate Lankenau 11)?
A: 2 µg/mL

Q: What about the MIC ([1]; P. aeruginosa clinical isolate Lankenau 12) of the same molecule?
A: 0.5 µg/mL

Q: And the MIC ([1]; P. aeruginosa clinical isolate Lankenau 13)?
A: 0.5 µg/mL

Q: And the MIC ([1]; P. aeruginosa clinical isolate Lankenau 14)?
A: 1 µg/mL

Q: What about the MIC ([1]; P. aeruginosa clinical isolate Lankenau 15) of the same molecule?
A: 1 µg/mL

Q: And the MIC ([1]; P. aeruginosa clinical isolate Lankenau 16)?
A: 1 µg/mL

Q: What about the MIC ([1]; P. aeruginosa clinical isolate Lankenau 17) of the same molecule?
A: 1 µg/mL

Q: And the MIC ([1]; P. aeruginosa clinical isolate Lankenau 18)?
A: 1 µg/mL

Q: What about the MIC ([1]; P. aeruginosa clinical isolate Lankenau 19) of the same molecule?
A: 1 µg/mL

Q: And the MIC ([1]; P. aeruginosa clinical isolate Lankenau 20)?
A: 1 µg/mL

Q: What about the MIC ([1]; P. aeruginosa clinical isolate Lankenau 21) of the same molecule?
A: 1 µg/mL

Q: And the MIC ([1]; P. aeruginosa clinical isolate Lankenau 22)?
A: 1 µg/mL

Q: And the MIC ([1]; P. aeruginosa clinical isolate Lankenau 23)?
A: 2 µg/mL

Q: What about the MIC ([1]; P. aeruginosa clinical isolate Lankenau 24) of the same molecule?
A: 2 µg/mL

Q: And the MIC ([1]; P. aeruginosa clinical isolate Lankenau 25)?
A: 2 µg/mL

Q: And the MIC ([1]; P. aeruginosa clinical isolate Lankenau 26)?
A: 2 µg/mL

Q: What about the MIC ([1]; P. aeruginosa clinical isolate Lankenau 27) of the same molecule?
A: 2 µg/mL

Q: What about the MIC ([1]; P. aeruginosa clinical isolate Lankenau 28) of the same molecule?
A: 8 µg/mL

Q: What about the MIC ([1]; P. aeruginosa clinical isolate Lankenau 29) of the same molecule?
A: 16 µg/mL

Q: And the MIC ([1]; P. aeruginosa clinical isolate Lankenau 30)?
A: 32 µg/mL

Q: What about the MIC50 [1, 7] of the same molecule?
A: 1 µg/mL

Q: And the MIC90 [1, 7]?
A: 8 µg/mL

Q: What about the MIC [2] of the same molecule?
A: < 1 µg/mL

Q: What about the MIC [3] of the same molecule?
A: < 1 µg/mL

Q: What about the MIC (S. aureus USA 600) of the same molecule?
A: < 1 µg/mL

Q: What about the MIC [4] of the same molecule?
A: < 1 µg/mL

Q: What about the MIC [5] of the same molecule?
A: 1 to 4 µg/mL (≈ 2.15 to 8.59 µM)

Q: What about the MIC (P. aeruginosa Paeβ-17) of the same molecule?
A: 8 to 32 µg/mL (≈ 17.2 to 68.7 µM)

Q: And the MIC [6]?
A: 1 to 4 µg/mL (≈ 2.15 to 8.59 µM)
